ChEMBL document CHEMBL3124838, “Discovery of 6-aryl-azabenzimidazoles that inhibit the TBK1/IKK-ε kinases” (Bioorg Med Chem Lett, 2014)

Legend:
[1] = biological target: CDK7/Cyclin H/MNAT1 (Homo sapiens) (UniProt P51946+P50613+P51948); experiment: Inhibition of human CDK7/cyclin H/MAT1 assessed as residual activity at 1 uM relative to control; type: protein-complex assay
[2] = biological target: Mitogen-activated protein kinase 8 (Homo sapiens) (UniProt P45983); experiment: Inhibition of human JNK1alpha1 assessed as residual activity at 1 uM relative to control
[3] = biological target: CDK2/Cyclin A2 (Homo sapiens) (UniProt P24941+P20248); experiment: Inhibition of human CDK2/cyclin A assessed as residual activity at 1 uM relative to control; type: protein-complex assay
[4] = biological target: Protein kinase C alpha type (Homo sapiens) (UniProt P17252); experiment: Inhibition of human PKCalpha assessed as residual activity at 1 uM relative to control
[5] = biological target: Cyclin-dependent kinase 1/cyclin B1 (Homo sapiens) (UniProt P06493+P14635); experiment: Inhibition of human CDK1/cyclin B assessed as residual activity at 1 uM relative to control; type: protein-complex assay
[6] = biological target: Insulin-like growth factor 1 receptor (Homo sapiens) (UniProt P08069); experiment: Inhibition of human activated IGF-1R assessed as residual activity at 1 uM relative to control
[7] = biological target: Casein kinase I isoform gamma-1 (Homo sapiens) (UniProt Q9HCP0); experiment: Inhibition of human CK1gamma1 assessed as residual activity at 1 uM relative to control
[8] = biological target: Mitogen-activated protein kinase kinase kinase 9 (Homo sapiens) (UniProt P80192); experiment: Inhibition of human MLK1 assessed as residual activity at 1 uM relative to control
[9] = biological target: Receptor-type tyrosine-protein kinase FLT3 (Homo sapiens) (UniProt P36888); experiment: Inhibition of human FLT3 assessed as residual activity at 1 uM relative to control
[10] = biological target: Macrophage-stimulating protein receptor (Homo sapiens) (UniProt Q04912); experiment: Inhibition of human RON assessed as residual activity at 1 uM relative to control
[11] = biological target: T1, Serine/threonine-protein kinase 4 (Homo sapiens) (UniProt Q13043); experiment: Inhibition of human MST1 assessed as residual activity at 1 uM relative to control
T1 sequence (whole entry): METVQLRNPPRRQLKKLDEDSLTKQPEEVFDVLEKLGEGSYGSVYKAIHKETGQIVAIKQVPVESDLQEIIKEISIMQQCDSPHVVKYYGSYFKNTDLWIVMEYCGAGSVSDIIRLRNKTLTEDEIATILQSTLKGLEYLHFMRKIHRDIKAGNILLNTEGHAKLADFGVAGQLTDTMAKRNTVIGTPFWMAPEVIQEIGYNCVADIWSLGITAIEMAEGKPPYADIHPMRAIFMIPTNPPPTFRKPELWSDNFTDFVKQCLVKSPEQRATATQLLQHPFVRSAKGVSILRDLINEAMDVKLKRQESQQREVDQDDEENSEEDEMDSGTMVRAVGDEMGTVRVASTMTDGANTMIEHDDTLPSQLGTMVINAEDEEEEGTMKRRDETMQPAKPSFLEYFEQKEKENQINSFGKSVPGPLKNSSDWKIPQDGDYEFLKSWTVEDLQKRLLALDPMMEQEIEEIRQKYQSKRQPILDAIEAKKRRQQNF

[12] = biological target: T2, Serine/threonine-protein kinase Nek2 (Homo sapiens) (UniProt P51955); experiment: Inhibition of human NEK2 assessed as residual activity at 1 uM relative to control
T2 sequence (whole entry): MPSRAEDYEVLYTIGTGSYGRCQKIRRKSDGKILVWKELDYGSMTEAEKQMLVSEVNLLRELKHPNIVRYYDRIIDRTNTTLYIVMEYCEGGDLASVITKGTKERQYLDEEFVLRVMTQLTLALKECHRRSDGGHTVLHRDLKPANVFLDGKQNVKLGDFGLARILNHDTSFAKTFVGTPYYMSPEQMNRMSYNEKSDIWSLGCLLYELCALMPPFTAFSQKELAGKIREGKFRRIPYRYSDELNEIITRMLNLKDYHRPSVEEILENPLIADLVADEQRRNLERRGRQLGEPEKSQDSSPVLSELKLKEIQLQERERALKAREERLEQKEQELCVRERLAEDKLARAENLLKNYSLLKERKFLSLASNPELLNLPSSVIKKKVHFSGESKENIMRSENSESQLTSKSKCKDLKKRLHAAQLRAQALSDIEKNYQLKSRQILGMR

[13] = biological target: Serine/threonine-protein kinase PLK1 (Homo sapiens) (UniProt P53350); experiment: Inhibition of human PLK1 assessed as residual activity at 1 uM relative to control
[14] = biological target: RAC-alpha serine/threonine-protein kinase (Homo sapiens) (UniProt P31749); experiment: Inhibition of human PKBalpha assessed as residual activity at 1 uM relative to control
[15] = biological target: 3-phosphoinositide-dependent protein kinase 1 (Homo sapiens) (UniProt O15530); experiment: Inhibition of human PDK1 assessed as residual activity at 1 uM relative to control

Sequence of Serine/threonine-protein kinase PLK1 (Homo sapiens) (P53350 whole entry): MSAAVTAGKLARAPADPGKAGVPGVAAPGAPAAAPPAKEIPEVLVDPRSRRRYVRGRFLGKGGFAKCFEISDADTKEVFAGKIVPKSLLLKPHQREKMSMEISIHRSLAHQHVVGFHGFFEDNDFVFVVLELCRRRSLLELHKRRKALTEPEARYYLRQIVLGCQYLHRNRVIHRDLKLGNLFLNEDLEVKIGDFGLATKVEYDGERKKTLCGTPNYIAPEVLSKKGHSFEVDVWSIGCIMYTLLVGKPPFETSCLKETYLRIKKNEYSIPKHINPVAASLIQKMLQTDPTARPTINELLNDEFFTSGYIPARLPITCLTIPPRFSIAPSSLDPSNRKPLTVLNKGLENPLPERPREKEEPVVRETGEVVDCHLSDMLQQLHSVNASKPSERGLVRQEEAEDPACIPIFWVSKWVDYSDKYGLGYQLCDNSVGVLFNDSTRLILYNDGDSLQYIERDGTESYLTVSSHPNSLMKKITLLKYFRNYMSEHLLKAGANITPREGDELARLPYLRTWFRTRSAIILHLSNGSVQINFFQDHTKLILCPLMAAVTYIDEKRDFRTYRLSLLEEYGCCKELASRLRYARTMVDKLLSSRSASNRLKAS
Sequence of Cyclin-dependent kinase 1/cyclin B1 (Homo sapiens) (P06493 whole entry, looked up): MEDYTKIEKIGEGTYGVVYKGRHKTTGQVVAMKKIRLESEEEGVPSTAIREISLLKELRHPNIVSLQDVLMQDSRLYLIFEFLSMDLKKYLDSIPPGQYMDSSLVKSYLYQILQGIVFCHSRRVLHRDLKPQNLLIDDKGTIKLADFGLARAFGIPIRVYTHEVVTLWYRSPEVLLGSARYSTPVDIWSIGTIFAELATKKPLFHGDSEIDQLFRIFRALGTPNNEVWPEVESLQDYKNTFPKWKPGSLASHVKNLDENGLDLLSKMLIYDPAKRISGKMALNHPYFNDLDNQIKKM
Sequence of Cyclin-dependent kinase 1/cyclin B1 (Homo sapiens) (P14635 whole entry, looked up): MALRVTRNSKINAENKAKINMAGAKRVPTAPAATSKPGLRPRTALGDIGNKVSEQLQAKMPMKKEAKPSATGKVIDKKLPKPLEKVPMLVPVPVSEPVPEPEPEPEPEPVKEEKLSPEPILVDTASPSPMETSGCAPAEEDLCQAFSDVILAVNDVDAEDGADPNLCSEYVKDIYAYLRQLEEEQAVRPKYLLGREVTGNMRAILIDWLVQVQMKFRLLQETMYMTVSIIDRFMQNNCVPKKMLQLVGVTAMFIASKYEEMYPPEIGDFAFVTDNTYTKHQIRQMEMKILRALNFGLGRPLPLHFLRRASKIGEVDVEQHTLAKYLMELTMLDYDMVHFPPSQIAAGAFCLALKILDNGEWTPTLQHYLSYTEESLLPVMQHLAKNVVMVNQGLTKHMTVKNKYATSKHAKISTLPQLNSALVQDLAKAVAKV
Sequence of Macrophage-stimulating protein receptor (Homo sapiens) (Q04912 25-304 limits assumed): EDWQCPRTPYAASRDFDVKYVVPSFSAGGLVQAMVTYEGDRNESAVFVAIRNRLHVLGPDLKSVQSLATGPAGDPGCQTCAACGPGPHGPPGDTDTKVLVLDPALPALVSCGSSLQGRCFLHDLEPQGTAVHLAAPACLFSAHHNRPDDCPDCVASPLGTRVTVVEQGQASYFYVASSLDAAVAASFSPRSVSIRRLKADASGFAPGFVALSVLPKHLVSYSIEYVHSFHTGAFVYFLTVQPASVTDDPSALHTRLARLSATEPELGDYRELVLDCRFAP
Sequence of Macrophage-stimulating protein receptor (Homo sapiens) (Q04912 310-1400 limits assumed): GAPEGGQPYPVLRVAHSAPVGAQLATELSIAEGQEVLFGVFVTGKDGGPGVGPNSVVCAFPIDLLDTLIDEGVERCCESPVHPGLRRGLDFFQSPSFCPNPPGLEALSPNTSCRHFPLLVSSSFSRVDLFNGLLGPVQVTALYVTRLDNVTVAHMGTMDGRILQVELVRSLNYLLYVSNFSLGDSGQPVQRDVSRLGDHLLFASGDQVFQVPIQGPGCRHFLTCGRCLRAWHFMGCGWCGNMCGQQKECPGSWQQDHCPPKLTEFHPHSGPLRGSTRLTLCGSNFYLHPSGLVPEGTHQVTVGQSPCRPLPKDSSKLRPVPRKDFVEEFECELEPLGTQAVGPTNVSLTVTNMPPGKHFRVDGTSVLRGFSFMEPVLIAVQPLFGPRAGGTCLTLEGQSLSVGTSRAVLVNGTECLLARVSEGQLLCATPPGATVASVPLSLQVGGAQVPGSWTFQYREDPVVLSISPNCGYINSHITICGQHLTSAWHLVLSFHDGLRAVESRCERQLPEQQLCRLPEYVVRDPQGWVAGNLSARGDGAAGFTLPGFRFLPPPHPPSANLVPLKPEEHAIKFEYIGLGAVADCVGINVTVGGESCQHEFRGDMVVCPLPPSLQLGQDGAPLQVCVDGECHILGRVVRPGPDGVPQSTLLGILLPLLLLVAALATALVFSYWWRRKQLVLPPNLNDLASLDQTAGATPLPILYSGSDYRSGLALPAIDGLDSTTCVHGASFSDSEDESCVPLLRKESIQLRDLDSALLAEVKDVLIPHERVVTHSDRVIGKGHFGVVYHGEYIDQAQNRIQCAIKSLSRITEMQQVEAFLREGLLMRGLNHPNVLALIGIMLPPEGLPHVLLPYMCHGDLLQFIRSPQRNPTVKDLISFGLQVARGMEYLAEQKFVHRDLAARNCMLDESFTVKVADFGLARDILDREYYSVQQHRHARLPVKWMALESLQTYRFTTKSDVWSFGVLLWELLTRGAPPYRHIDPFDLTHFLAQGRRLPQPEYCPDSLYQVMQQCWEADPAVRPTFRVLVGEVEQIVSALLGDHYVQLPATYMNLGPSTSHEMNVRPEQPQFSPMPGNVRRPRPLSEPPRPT
Sequence of Mitogen-activated protein kinase kinase kinase 9 (Homo sapiens) (P80192 whole entry, looked up): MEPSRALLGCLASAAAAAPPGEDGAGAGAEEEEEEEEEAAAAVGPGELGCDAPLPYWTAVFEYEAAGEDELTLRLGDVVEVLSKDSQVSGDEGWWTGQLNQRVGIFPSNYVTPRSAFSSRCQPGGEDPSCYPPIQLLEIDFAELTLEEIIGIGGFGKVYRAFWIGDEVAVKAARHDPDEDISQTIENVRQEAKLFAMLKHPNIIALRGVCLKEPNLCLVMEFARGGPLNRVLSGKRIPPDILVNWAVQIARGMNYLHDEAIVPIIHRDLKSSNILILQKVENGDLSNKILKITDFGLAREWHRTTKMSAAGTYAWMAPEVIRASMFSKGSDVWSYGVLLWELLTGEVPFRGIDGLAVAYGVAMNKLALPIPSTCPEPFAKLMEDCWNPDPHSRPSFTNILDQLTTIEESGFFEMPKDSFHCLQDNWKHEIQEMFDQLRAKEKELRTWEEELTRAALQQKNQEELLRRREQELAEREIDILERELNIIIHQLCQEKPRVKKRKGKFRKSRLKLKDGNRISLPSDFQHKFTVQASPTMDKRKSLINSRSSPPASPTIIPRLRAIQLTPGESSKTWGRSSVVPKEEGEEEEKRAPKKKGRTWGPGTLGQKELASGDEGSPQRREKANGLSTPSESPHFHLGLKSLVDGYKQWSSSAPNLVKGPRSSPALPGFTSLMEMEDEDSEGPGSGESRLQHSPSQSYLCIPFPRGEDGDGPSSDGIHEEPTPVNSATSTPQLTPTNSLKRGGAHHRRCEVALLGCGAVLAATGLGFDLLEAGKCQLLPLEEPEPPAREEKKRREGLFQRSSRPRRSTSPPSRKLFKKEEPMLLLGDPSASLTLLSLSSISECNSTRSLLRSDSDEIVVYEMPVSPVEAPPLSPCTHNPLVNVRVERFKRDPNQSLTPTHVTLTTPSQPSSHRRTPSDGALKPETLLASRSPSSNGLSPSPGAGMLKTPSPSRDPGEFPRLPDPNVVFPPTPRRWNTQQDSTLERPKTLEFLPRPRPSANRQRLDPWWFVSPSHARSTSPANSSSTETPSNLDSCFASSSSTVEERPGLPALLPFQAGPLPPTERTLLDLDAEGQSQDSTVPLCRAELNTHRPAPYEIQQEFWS
Sequence of Receptor-type tyrosine-protein kinase FLT3 (Homo sapiens) (P36888 whole entry): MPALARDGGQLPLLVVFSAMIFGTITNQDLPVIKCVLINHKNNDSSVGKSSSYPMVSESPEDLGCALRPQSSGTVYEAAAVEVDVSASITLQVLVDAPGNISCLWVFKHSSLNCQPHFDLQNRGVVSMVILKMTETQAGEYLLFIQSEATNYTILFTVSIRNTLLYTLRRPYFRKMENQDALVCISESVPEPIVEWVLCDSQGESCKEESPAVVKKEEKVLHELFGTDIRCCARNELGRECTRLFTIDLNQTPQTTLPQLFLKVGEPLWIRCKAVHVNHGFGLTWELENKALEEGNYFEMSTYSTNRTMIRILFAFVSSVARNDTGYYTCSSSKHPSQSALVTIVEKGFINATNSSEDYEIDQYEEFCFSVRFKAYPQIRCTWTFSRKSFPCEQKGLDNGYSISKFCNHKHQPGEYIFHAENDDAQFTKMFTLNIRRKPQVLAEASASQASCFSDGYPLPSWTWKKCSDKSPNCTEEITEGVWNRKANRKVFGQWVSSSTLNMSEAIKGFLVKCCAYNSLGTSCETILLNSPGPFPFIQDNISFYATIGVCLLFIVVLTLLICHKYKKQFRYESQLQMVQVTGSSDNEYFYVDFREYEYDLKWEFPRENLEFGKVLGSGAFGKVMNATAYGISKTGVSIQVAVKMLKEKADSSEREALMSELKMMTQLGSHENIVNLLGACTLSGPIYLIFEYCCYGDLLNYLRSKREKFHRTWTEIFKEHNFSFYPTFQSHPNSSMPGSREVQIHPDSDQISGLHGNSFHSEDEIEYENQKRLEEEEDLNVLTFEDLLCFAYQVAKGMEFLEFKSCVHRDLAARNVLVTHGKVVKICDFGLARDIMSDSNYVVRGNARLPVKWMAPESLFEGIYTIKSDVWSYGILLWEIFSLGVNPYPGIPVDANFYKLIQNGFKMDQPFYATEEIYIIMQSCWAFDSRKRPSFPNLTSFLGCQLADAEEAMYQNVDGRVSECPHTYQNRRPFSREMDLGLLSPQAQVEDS

Row | Activity [1] [%] | Activity [2] [%] | Activity [3] [%] | Activity [4] [%] | Activity [5] [%] | Activity [6] [%] | Activity [7] [%] | Activity [8] [%] | Activity [9] [%] | Activity [10] [%] | Activity [11] [%] | Activity [12] [%] | Activity [13] [%] | Activity [14] [%] | Activity [15] [%] | SMILES
1 | 91 | 117 | 103 | 101 | 68 | 95 | 44 | 30 | 6 | 128 | 115 | 120 | 105 | 119 | 91 | COc1ccc(-c2nc3cc(-c4csc(C(=O)NCC(C)C)c4)cnc3[nH]2)cc1
2 | 95 | 98 | 92 | 89 | 68 | 91 | 29 | 23 | 18 | 132 | 116 | 97 | 112 | 111 | 80 | COc1ccc(-c2nc3cc(-c4csc(C(=O)NCCC(C)C)c4)cnc3[nH]2)cc1
3 | 100 | 98 | 98 | 91 | 89 | 80 | 65 | 37 | 30 | 122 | 122 | 111 | 110 | 107 | 85 | COc1ccc(-c2nc3cc(-c4csc(C(=O)NCC(C)(C)C)c4)cnc3[nH]2)cc1
